≈ marks a conversion by molar mass, not a printed value.
How the values were obtained:
MRSA (ATCC BAA-1762) = assay: In vitro susceptibility, broth microdilution (MIC); type: cell-based, methicillin resistant S. aureus; conditions: Staphylococcus aureus; MRSA ATCC BAA-1762; read-out: Antimicrobial activity (MIC) MRSA ATCC BAA1762
How it was run: (§1)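 MIC determined by CLSI 2-fold broth microdilution in cation-adjusted Mueller–Hinton broth at ~2.5×10^5 CFU/ml, final compound 0.031–64 μg/ml, 18–24 h at 37 °C. MIC is the lowest concentration giving complete growth inhibition by background-corrected OD600 versus compound-free wells; duplicate or triplicate wells, replicated at least twice.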

VRE#2 (2010A) = assay: In vitro susceptibility, broth microdilution (MIC); type: cell-based, vancomycin resistant Enterococci; conditions: VRE#2 (2010A); read-out: Antimicrobial activity (MIC) VRE#2
How it was run: as §1

S. aureus (ATCC29213) = assay: In vitro susceptibility, broth microdilution (MIC); type: cell-based; conditions: Staphylococcus aureus; S. aureus ATCC29213; 18-24 h, 37 C; read-out: Antimicrobial activity (MIC) S. aureus ATCC29213
How it was run: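 CLSI 2-fold serial broth microdilution; K. pneumoniae C238 grown in L-broth, S. aureus ATCC 29213 in Mueller Hinton broth, plates incubated 18–24 h at 37 °C. MIC taken as lowest concentration giving complete growth inhibition by OD600 versus compound-free wells, background-subtracted.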

MRSA Pyk = biological target: T1, MRSA Pyk (Staphylococcus aureus, UniProt Q6GG09); assay: MRSA pyruvate kinase (PK) activity, continuous LDH-coupled assay; type: biochemical, methicillin resistant S. aureus (MRSA252)
T1 construct: made in house; host or cells: E. coli BL-21 (DE3)
How it was run: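 His-tagged MRSA PK (strain Sanger 252) and human PK isoforms expressed in E. coli BL-21 (DE3) and Ni-NTA purified, used at 15 nM in an LDH-coupled assay following NADH oxidation at 340 nm, 30° C, up to 5 min, ≤1% DMSO. IC50 from four-parameter variable-slope fit; Ki with PEP 2-20 mM, ADP fixed 2 mM, inhibitor 0-400 nM.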

[1] = tested on: A. baumannii (ATCC 17978); assay: In vitro susceptibility, broth microdilution (MIC); type: cell-based; conditions: Acinetobacter baumannii, ATCC17978; A. baumannii ATCC 17978 (values marked *); read-out: Antimicrobial activity (MIC) A. baumannii
How it was run: as §1

T1 sequence (Q6GG09 whole entry): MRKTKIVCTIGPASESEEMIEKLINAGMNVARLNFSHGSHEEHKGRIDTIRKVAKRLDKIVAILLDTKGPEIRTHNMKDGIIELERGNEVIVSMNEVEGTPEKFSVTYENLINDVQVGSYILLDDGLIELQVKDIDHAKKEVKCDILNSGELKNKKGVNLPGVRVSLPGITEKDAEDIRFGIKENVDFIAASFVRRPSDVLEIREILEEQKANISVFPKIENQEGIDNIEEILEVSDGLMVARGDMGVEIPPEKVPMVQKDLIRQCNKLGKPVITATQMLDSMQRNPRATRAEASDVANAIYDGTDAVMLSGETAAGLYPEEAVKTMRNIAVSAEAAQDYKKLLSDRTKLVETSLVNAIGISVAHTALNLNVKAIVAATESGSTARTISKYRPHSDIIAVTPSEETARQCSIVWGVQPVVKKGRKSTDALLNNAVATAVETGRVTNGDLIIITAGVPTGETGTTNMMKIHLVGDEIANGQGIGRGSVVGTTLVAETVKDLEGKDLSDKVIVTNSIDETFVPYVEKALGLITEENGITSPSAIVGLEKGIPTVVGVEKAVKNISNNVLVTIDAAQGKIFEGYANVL

Clc1ccc2[nH]c(-c3cc4ccc(Br)cc4[nH]3)nc2n1 [Compound 208, 2-(6-Bromo-1H-indol-2-yl)-5-chloro-1H-imidazo[4,5-b]pyridine]
MIC (MRSA (ATCC BAA-1762)): 8 µg/mL (≈ 23 µM) | MIC (VRE#2 (2010A)): 16 µg/mL (≈ 46 µM) | MIC (S. aureus (ATCC29213)): 8 µg/mL (≈ 23 µM) | IC50 (MRSA Pyk): > 1000 nM | MIC [1]: > 64 µg/mL

O=C(NCCc1ccncc1)c1c(-c2cc3cc(Cl)ccc3[nH]2)[nH]c2cc(Br)ccc12 [Compound 142, 6-bromo-5′-chloro-N-(2-(pyridin-4-yl)ethyl)-1H,1′H-[2,2′-biindole]-3-carboxamide]
MIC (S. aureus (ATCC29213)): > 64 µg/mL | IC50 (MRSA Pyk): < 100 nM | MIC [1]: > 64 µg/mL

CN(C)c1cc[n+](CCCNC(=O)c2c(-c3cc4cc(Cl)ccc4[nH]3)[nH]c3cc(Br)ccc23)cc1 [Compound 145, 1-(3-(6-bromo-5′-chloro-1H, 1′H-[2,2′-biindole]-3-carboxamido)propyl)-4-(dimethylamino)pyridin-1-ium]
MIC (MRSA (ATCC BAA-1762)): 16 µg/mL | MIC (VRE#2 (2010A)): 16 µg/mL | MIC (S. aureus (ATCC29213)): 8 µg/mL | IC50 (MRSA Pyk): < 100 nM | MIC [1]: > 64 µg/mL

O=C(NCc1ccccc1)Nc1nc2cc(Br)ccc2s1 [Compound 158, 1-benzyl-3-(5-bromobenzo[d]thiazol-2-yl)urea]
MIC (MRSA (ATCC BAA-1762)): 1 µg/mL (≈ 2.76 µM) | MIC (VRE#2 (2010A)): 2 µg/mL (≈ 5.52 µM) | MIC (S. aureus (ATCC29213)): 2 µg/mL (≈ 5.52 µM) | MIC [1]: > 64 µg/mL

O=C(COc1cc2[nH]c(-c3cc4ccc(Br)cc4[nH]3)cc2cc1Cl)NCCC[n+]1ccccc1 [Compound 190, 1-(3-(2-((6′-Bromo-5-chloro-1H,1′H-[2,2′-biindol]-6-yl)oxy)acetamido)propyl)pyridin-1-ium Acetate]
MIC (MRSA (ATCC BAA-1762)): 8 µg/mL | MIC (VRE#2 (2010A)): 16 µg/mL | MIC (S. aureus (ATCC29213)): 8 µg/mL | IC50 (MRSA Pyk): < 100 nM | MIC [1]: > 64 µg/mL

O=C(Nc1ccc(Cl)c(C(F)(F)F)c1)Nc1nc2cc(Br)ccc2s1 [Compound 156, 1-(5-bromobenzo[d]thiazol-2-yl)-3-(4-chloro-3-(trifluoromethyl)phenyl)urea]
MIC (MRSA (ATCC BAA-1762)): 1 µg/mL (≈ 2.22 µM) | MIC (VRE#2 (2010A)): 1 µg/mL (≈ 2.22 µM) | MIC (S. aureus (ATCC29213)): 0.5 µg/mL (≈ 1.11 µM) | MIC [1]: 64 µg/mL (≈ 142 µM)

O=C(COc1cc2[nH]c(-c3cc4ccc(Br)cc4[nH]3)cc2cc1Cl)NCCO [Compound 192, 2-((6′-Bromo-5-chloro-1H,1′H-[2,2′-biindol]-6-yl)oxy)-N-(2-hydroxyethyl)acetamide]
MIC (S. aureus (ATCC29213)): > 64 µg/mL | IC50 (MRSA Pyk): < 100 nM | MIC [1]: > 64 µg/mL

COC(=O)COc1cc2[nH]c(-c3cc4ccc(Br)cc4[nH]3)cc2cc1Cl [Compound 188, Methyl 2-((6′-bromo-5-chloro-1H,1′H-[2,2′-biindol]-6-yl)oxy)acetate]
MIC (S. aureus (ATCC29213)): > 64 µg/mL | IC50 (MRSA Pyk): < 100 nM | MIC [1]: > 64 µg/mL

CN(C)CCc1c(-c2nc3cc(Cl)c(Cl)cc3[nH]2)[nH]c2cc(Br)ccc12 [Compound 202, 2-(6-Bromo-2-(5,6-dichloro-1H-benzo[d]imidazol-2-yl)-1H-indol-3-yl)-N,N-dimethylethan-1-amine]
MIC (MRSA (ATCC BAA-1762)): 4 µg/mL (≈ 8.85 µM) | MIC (VRE#2 (2010A)): 4 µg/mL (≈ 8.85 µM) | MIC (S. aureus (ATCC29213)): 4 µg/mL (≈ 8.85 µM) | IC50 (MRSA Pyk): < 100 nM | MIC [1]: > 64 µg/mL

CC(C)[C@@H](C(=O)OCCCNC(=O)c1c(-c2cc3cc(Cl)ccc3[nH]2)[nH]c2cc(Br)ccc12)N(C)C [Compound 185, 3-(6-Bromo-5′-chloro-1H,1′H-[2,2′-biindole]-3-carboxamido)propyl Dimethyl-L-valinate]
MIC (S. aureus (ATCC29213)): > 64 µg/mL | IC50 (MRSA Pyk): < 100 nM | MIC [1]: > 64 µg/mL

CN(C)CCNC(=O)COc1cc2[nH]c(-c3cc4ccc(Br)cc4[nH]3)cc2cc1Cl [Compound 189, 2-((6′-Bromo-5-chloro-1H,1′H-[2,2′-biindol]-6-yl)oxy)-N-(2-(dimethylamino)ethyl)acetamide]
MIC (S. aureus (ATCC29213)): > 64 µg/mL | IC50 (MRSA Pyk): < 100 nM | MIC [1]: > 64 µg/mL

O=C(COc1cc2[nH]c(-c3cc4ccc(Br)cc4[nH]3)cc2cc1Cl)NS(=O)(=O)c1ccc(NC(=O)C(F)(F)F)cc1 [Compound 195, N-(4-(N-(2-((6′-Bromo-5-chloro-1H, 1′H-[2,2′-biindol]-6-yl)oxy)acetyl)sulfamoyl)phenyl)-2,2,2-trifluoroacetamide]
MIC (MRSA (ATCC BAA-1762)): 64 µg/mL (≈ 95.5 µM) | MIC (S. aureus (ATCC29213)): 64 µg/mL (≈ 95.5 µM) | IC50 (MRSA Pyk): < 100 nM | MIC [1]: > 64 µg/mL

COc1cc2sc(NC(=O)Nc3ccccc3)nc2cc1Br [Compound 153, 1-(5-bromo-6-methoxybenzo[d]thiazol-2-yl)-3-phenylurea]
MIC (S. aureus (ATCC29213)): > 64 µg/mL | MIC [1]: > 64 µg/mL

O=C(NCCN1CCC[C@H]1C(=O)O)c1c(-c2cc3cc(Cl)ccc3[nH]2)[nH]c2cc(Br)ccc12 [Compound 125, (2-(6-Bromo-5′-chloro-1H,1′H-[2,2′-biindole]-3-carboxamido)ethyl)-L-proline]
MIC (S. aureus (ATCC29213)): > 64 µg/mL | IC50 (MRSA Pyk): < 100 nM | MIC [1]: > 64 µg/mL

CC(C)(C)OC(=O)CCn1c(-c2cc3ccc(Br)cc3[nH]2)nc2cc(Cl)c(Cl)cc21 [Compound 214, tert-Butyl 3-(2-(6-bromo-1H-indol-2-yl)-5,6-dichloro-1H-benzo[d]imidazol-1-yl)propanoate]
MIC (S. aureus (ATCC29213)): > 64 µg/mL | MIC [1]: > 64 µg/mL

CC(=O)OCCCNC(=O)c1c(-c2cc3cc(Cl)ccc3[nH]2)[nH]c2cc(Br)ccc12 [Compound 183, 3-(6-Bromo-5′-chloro-1H,1′H-[2,2′-biindole]-3-carboxamido)propyl Acetate]
MIC (S. aureus (ATCC29213)): > 64 µg/mL | IC50 (MRSA Pyk): < 100 nM | MIC [1]: > 64 µg/mL

OCCn1c(-c2cc3ccc(Br)cc3[nH]2)nc2cc(Cl)c(Cl)cc21 [Compound 211, 2-(2-(6-Bromo-1H-indol-2-yl)-5,6-dichloro-1H-benzo[d]imidazol-1-yl)ethan-1-ol]
MIC (S. aureus (ATCC29213)): > 64 µg/mL | MIC [1]: > 64 µg/mL

COc1ccc(NC(=O)Nc2nc3cc(Br)ccc3s2)cc1 [Compound 152, 1-(5-bromobenzo[d]thiazol-2-yl)-3-(4-methoxyphenyl)urea]
MIC (MRSA (ATCC BAA-1762)): 1 µg/mL (≈ 2.64 µM) | MIC (VRE#2 (2010A)): 2 µg/mL (≈ 5.29 µM) | MIC (S. aureus (ATCC29213)): 1 µg/mL (≈ 2.64 µM) | MIC [1]: > 64 µg/mL

NC(=O)[C@@H]1CCCN1CCNC(=O)c1c(-c2cc3cc(Cl)ccc3[nH]2)[nH]c2cc(Br)ccc12 [Compound 120, (S)-6-Bromo-N-(2-(2-carbamoylpyrrolidin-1-yl)ethyl)-5′-chloro-1H,1′H-[2,2′-biindole]-3-carboxamide]
MIC (S. aureus (ATCC29213)): > 64 µg/mL | IC50 (MRSA Pyk): < 100 nM | MIC [1]: > 64 µg/mL

NC(=O)N1CCC(NCCNC(=O)c2c(-c3cc4cc(Cl)ccc4[nH]3)[nH]c3cc(Br)ccc23)CC1 [Compound 131, 6-bromo-N-(2-(1-carbamoylpiperidin-4-ylamino)ethyl)-5′-chloro-1H,1′H-2,2′-biindole-3-carboxamide]
MIC (S. aureus (ATCC29213)): > 64 µg/mL | MIC [1]: 64 µg/mL (≈ 115 µM)

O=C(Nc1ccc(Cl)c(Cl)c1)Nc1nc2cc(Br)ccc2s1 [Compound 155, 1-(5-bromobenzo[d]thiazol-2-yl)-3-(3,4-dichlorophenyl)urea]
MIC (MRSA (ATCC BAA-1762)): 0.5 µg/mL (≈ 1.2 µM) | MIC (VRE#2 (2010A)): 0.5 µg/mL (≈ 1.2 µM) | MIC (S. aureus (ATCC29213)): 0.5 µg/mL (≈ 1.2 µM) | MIC [1]: > 64 µg/mL

COC(=O)c1c(NC(=O)Nc2ccc(Cl)cc2)[nH]c2cc(Br)ccc12 [Compound 181, Methyl 6-bromo-2-(3-(4-chlorophenyl)ureido)-1 H-indole-3-carboxylate]
MIC (S. aureus (ATCC29213)): > 64 µg/mL | MIC [1]: > 64 µg/mL

Brc1ccc2cc(-c3nc4ncc(Br)cc4[nH]3)[nH]c2c1 [Compound 210, 6-Bromo-2-(6-bromo-1H-indol-2-yl)-1H-imidazo[4,5-b]pyridine]
MIC (S. aureus (ATCC29213)): > 64 µg/mL | MIC [1]: > 64 µg/mL

O=C(NCCN1CCNCC1=O)c1c(-c2cc3cc(Cl)ccc3[nH]2)[nH]c2cc(Br)ccc12 [Compound 143, 6-bromo-5′-chloro-N-(2-(2-oxopiperazin-1-yl)ethyl)-1H,1′H-[2,2′-biindole]-3-carboxamide]
MIC (S. aureus (ATCC29213)): > 64 µg/mL | MIC [1]: > 64 µg/mL

Clc1cnc2nc(-c3cc4ccc(Br)cc4[nH]3)[nH]c2c1 [Compound 209, 2-(6-Bromo-1H-indol-2-yl)-6-chloro-1H-imidazo[4,5-b]pyridine]
MIC (S. aureus (ATCC29213)): > 64 µg/mL | MIC [1]: > 64 µg/mL

COCC(=O)N1CCCN(CCNC(=O)c2c(-c3cc4cc(Cl)ccc4[nH]3)[nH]c3cc(Br)ccc23)CC1 [Compound 121, 6-Bromo-5′-chloro-N-(2-(4-(2-methoxyacetyl)-1,4-diazepan-1-yl)ethyl)-1H,1′H-[2,2′-biindole]-3-carboxamide]
MIC (S. aureus (ATCC29213)): > 64 µg/mL | IC50 (MRSA Pyk): < 100 nM | MIC [1]: > 64 µg/mL

O=C(O)CNC(=O)c1c(-c2cc3cc(Cl)ccc3[nH]2)[nH]c2cc(Br)ccc12 [Compound 204, (6-Bromo-5′-chloro-1H,1′H-[2,2′-biindole]-3-carbonyl)glycine]
MIC (S. aureus (ATCC29213)): 64 µg/mL (≈ 143 µM) | IC50 (MRSA Pyk): < 100 nM | MIC [1]: > 64 µg/mL

O=C1CN(CCNC(=O)c2c(-c3cc4cc(Cl)ccc4[nH]3)[nH]c3cc(Br)ccc23)CCN1 [Compound 127, 6-bromo-5′-chloro-N-(2-(3-oxopiperazin-1-yl)ethyl)-1H,1′H-2,2′-biindole-3-carboxamide]
MIC (S. aureus (ATCC29213)): > 64 µg/mL | IC50 (MRSA Pyk): < 100 nM | MIC [1]: > 64 µg/mL

O=C(O)Cn1c(-c2cc3ccc(Br)cc3[nH]2)nc2cc(Cl)c(Cl)cc21 [Compound 213, 2-(2-(6-Bromo-1H-indol-2-yl)-5,6-dichloro-1H-benzo[d]imidazol-1-yl)acetic Acid]
MIC (S. aureus (ATCC29213)): > 64 µg/mL | MIC [1]: > 64 µg/mL

— patent US20180312493A1, “Antibiotic Compounds, Pharmaceutical Formulations Thereof And Methods And Uses Therefor” (Simon Fraser University, priority 2015, published 2018)
